For 30 compounds, IC50 results are on record in patent US11104690B2, “Indazole derivatives useful as inhibitors of diacylglyceride O-acyltransferase 2” (Merck Sharp & Dohme Corp., priority 2016, dated 2021).

By pIC50 is commonly meant the IC50 on a negative log10 scale, so that one unit is a factor of ten.

Structures are written as SMILES. pIC50: −log10 of the molar value.

For the assay, the target named is Human DGAT2 (Homo sapiens (Human), UniProt Q96PD7). Put plainly: DGAT2 Enzymatic Activity Assay (triolein formation, LC/MS/MS). The assay is classed as biochemical. Conditions: hDGAT2 Sf-9 membrane prep; 25 μM diolein, 10 μM oleoyl-CoA; room temperature. Summed up: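 Membranes from Sf-9 cells infected with untagged hDGAT2 baculovirus, 10 ng/μL, at room temperature in 100 mM Tris.Cl pH 7.0, 20 mM MgCl2, 5% ethanol with 25 μM diolein and 10 μM oleoyl-CoA. Triolein quantified by LC/MS/MS against spiked internal standard; IC50 from 4-parameter sigmoidal fit.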
Sequence of Human DGAT2 (Q96PD7 whole entry): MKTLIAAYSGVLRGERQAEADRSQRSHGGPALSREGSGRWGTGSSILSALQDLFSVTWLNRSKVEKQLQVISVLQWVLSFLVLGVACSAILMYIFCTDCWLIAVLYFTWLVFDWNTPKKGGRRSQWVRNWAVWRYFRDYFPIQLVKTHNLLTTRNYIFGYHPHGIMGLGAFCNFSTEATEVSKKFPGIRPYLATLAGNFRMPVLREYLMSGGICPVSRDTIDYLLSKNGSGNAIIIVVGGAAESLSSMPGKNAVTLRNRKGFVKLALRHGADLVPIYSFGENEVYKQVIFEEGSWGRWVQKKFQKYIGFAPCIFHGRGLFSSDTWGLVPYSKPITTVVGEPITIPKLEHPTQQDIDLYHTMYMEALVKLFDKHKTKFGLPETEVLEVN
With `C[C@@H](CO)NC(=O)c1ccc2c(-c3ccccc3Cl)nn(-c3ccc(F)cc3)c2c1` [Example 68, 3-(2-chlorophenyl)-1-(4-fluorophenyl)-N-[(1S)-2-hydroxy-1-methylethyl]-1H-indazole-6-carboxamide], the negative-log IC50 (pIC50) was 6.51. On to `CC1(NC(=O)c2ccc3c(-c4ccccc4Cl)nn(-c4cccnc4)c3c2)CCS(=O)(=O)C1` (racemic) [Example 189, 3-(2-chlorophenyl)-N-(3-methyl-1,1-dioxidotetrahydrothiophen-3-yl)-1-pyridin-3-yl-1H-indazole-6-carboxamide], for which the pIC50 was 6.39. The value for `O=C(NCc1cnsn1)c1ccc2c(-c3ccccc3Cl)nn(-c3ccc(F)cc3)c2c1` [Example 40, 3-(2-chlorophenyl)-1-(4-fluorophenyl)-N-(1,2,5-thiadiazol-3-ylmethyl)-1H-indazole-6-carboxamide] was 6.35; that for `CC1(NC(=O)c2ccc3c(-c4cccc(C#N)c4)nn(-c4ccc(F)cc4)c3c2)CCS(=O)(=O)C1` (single isomer, unassigned) [Example 117-B, 3-(3-cyanophenyl)-1-(4-fluorophenyl)-N-(3-methyl-1,1-dioxidotetrahydrothiophen-3-yl)-1H-indazole-6-carboxamide] was 8.19; that for `O=C(NC1CC[S+]([O-])C1)c1ccc2c(-c3ccccc3Cl)nn(-c3ccc(F)cc3)c2c1` (single isomer, unassigned) [Example 58-A, 3-(2-chlorophenyl)-1-(4-fluorophenyl)-N-(1-oxidotetrahydrothiophen-3-yl)-1H-indazole-6-carboxamide] was 6.18. In the case of `CC1(NC(=O)c2ccc3c(-c4cncc(C#N)c4)nn(-c4ccc(F)cc4)c3c2)CCS(=O)(=O)C1` (single isomer, unassigned) [Example 146-A, 3-(5-cyanopyridin-3-yl)-1-(4-fluorophenyl)-N-(3-methyl-1,1-dioxidotetrahydrothiophen-3-yl)-1H-indazole-6-carboxamide], the pIC50 was 7.20. Take `COc1cc(-c2nn(-c3ccc(F)cc3)c3cc(C(=O)NC4(C)CCS(=O)(=O)C4)ccc23)c(Cl)cn1` (single isomer, unassigned) [Example 141-A, 3-(5-chloro-2-methoxypyridin-4-yl)-1-(4-fluorophenyl)-N-(3-methyl-1,1-dioxidotetrahydrothiophen-3-yl)-1H-indazole-6-carboxamide]: the pIC50 was 8.32. The value for `CC1(NC(=O)c2ccc3c(-c4cc(C(N)=O)ccc4Cl)nn(-c4ccc(F)cc4)c3c2)CCS(=O)(=O)C1` (single isomer, unassigned) [Example 121-A, 3-(5-carbamoyl-2-chlorophenyl)-1-(4-fluorophenyl)-N-(3-methyl-1,1-dioxidotetrahydrothiophen-3-yl)-1H-indazole-6-carboxamide] was 6.88; that for `CC1(NC(=O)c2ccc3c(-c4ccccc4Cl)nn(-c4cscn4)c3c2)CCS(=O)(=O)C1` (stereo not drawn) [Example 179, 3-(2-Chlorophenyl)-N-(3-methyl-1,1-dioxidotetrahydrothiophen-3-yl)-1-(thiazol-4-yl)-1H-indazole-6-carboxamide] was 6.55; that for `N#Cc1ccc(Cl)c(-c2nn(-c3ccc(F)cn3)c3cc(C(=O)NC4CCS(=O)(=O)C4)ccc23)c1` (single isomer, unassigned) [Example 127-A, 3-(2-chloro-5-cyanophenyl)-N-(1,1-dioxidotetrahydrothiophen-3-yl)-1-(5-fluoropyridin-2-yl)-1H-indazole-6-carboxamide] was 8.09. Compound `COC(=O)C1(NC(=O)c2ccc3c(-c4ccccc4Cl)nn(-c4ccc(F)cc4)c3c2)CCSC1` (racemic) [Example 59, methyl 3-({[3-(2-chlorophenyl)-1-(4-fluorophenyl)-1H-indazol-6-yl]carbonyl}amino)tetra-hydrothiophene-3-carboxylate] gave a negative logarithm of the IC50 (pIC50) of 6.34. `CC(NC(=O)c1ccc2c(-c3ccccc3Cl)nn(-c3ccc(F)cc3)c2c1)C(O)C(F)(F)F` (stereo not drawn) [Example 81, 3-(2-chlorophenyl)-1-(4-fluorophenyl)-N-(3,3,3-trifluoro-2-hydroxy-1-methylpropyl)-1H-indazole-6-carboxamide] gave a negative logarithm of the IC50 (pIC50) of 7.06. The result for `CC(C)(C)[C@@H](CO)NC(=O)c1ccc2c(-c3ccccc3Cl)nn(-c3ccc(F)cc3)c2c1` [Example 99, 3-(2-chlorophenyl)-1-(4-fluorophenyl)-N-[(1S)-1-(hydroxymethyl)-2,2-dimethylpropyl]-1H-indazole-6-carboxamide] reads 8.21. Compound `O=C(N[C@H]1CCC[C@H]1O)c1ccc2c(-c3ccccc3Cl)nn(-c3ccc(F)cc3)c2c1` [Example 96, 3-(2-chlorophenyl)-1-(4-fluorophenyl)-N-[(1S,2R)-2-hydroxycyclopentyl]-1H-indazole-6-carboxamide] showed a negative logarithm of the IC50 (pIC50) of 7.37. `CC1(NC(=O)c2ccc3c(-c4cccc(OC(F)F)c4)nn(-c4ccc(F)cc4)c3c2)CCS(=O)(=O)C1` (single isomer, unassigned) [Example 143-A, 3-[3-(difluoromethoxy)phenyl]-1-(4-fluorophenyl)-N-(3-methyl-1,1-dioxidotetrahydrothiophen-3-yl)-1H-indazole-6-carboxamide] had a negative-log IC50 (pIC50) of 8.80. Compound `CC(C)(C)OC(=O)N1CC[C@@H](NC(=O)c2ccc3c(-c4ccccc4Cl)nn(-c4ccc(F)cc4)c3c2)C1` [Example 101, tert-butyl (3R)-3-({[3-(2-chlorophenyl)-1-(4-fluorophenyl)-1H-indazol-6-yl]carbonyl}amino)pyrrolidine-1-carboxylate] gave a pIC50 of 6.87.

The compound `O=C(NC1(CO)CCSC1)c1ccc2c(-c3ccccc3Cl)nn(-c3ccc(F)cc3)c2c1` (racemic) [Example 98, 3-(2-chlorophenyl)-1-(4-fluorophenyl)-N-[3-(hydroxymethyl)tetrahydrothiophen-3-yl]-1H-indazole-6-carboxamide] gave a pIC50 of 7.35. In the case of `O=C(NC1CCS(=O)(=O)C1)c1ccc2c(-c3cccnc3Cl)nn(-c3ccc(F)cc3)c2c1` (single isomer, unassigned) [Example 135-A, 3-(2-chloropyridin-3-yl)-N-(1,1-dioxidotetrahydrothiophen-3-yl)-1-(4-fluorophenyl)-1H-indazole-6-carboxamide], the pIC50 was 7.19. Consider `O=C(NC1CCS(=O)(=O)C1)c1ccc2c(-c3ccccc3Cl)nn(Cc3ccc(Cl)cc3)c2c1` (stereo not drawn) [Example 168, 1-(4-chlorobenzyl)-3-(2-chlorophenyl)-N-(1,1-dioxidotetrahydrothiophen-3-yl)-1H-indazole-6-carboxamide], for which the negative logarithm of the IC50 (pIC50) was 6.34. As for `O=C(Nc1ccc(C(F)(F)F)nc1)c1ccc2c(-c3ccccc3Cl)nn(-c3ccc(F)cc3)c2c1` [Example 10, 3-(2-chlorophenyl)-1-(4-fluorophenyl)-N-[6-(trifluoromethyl)pyridin-3-yl]-1H-indazole-6-carboxamide], the negative logarithm of the IC50 (pIC50) was 6.22. The result for `O=C(NCc1cn2cccnc2n1)c1ccc2c(-c3ccccc3Cl)nn(-c3ccc(F)cc3)c2c1` [Example 35, 3-(2-chlorophenyl)-1-(4-fluorophenyl)-N-(imidazo[1,2-a]pyrimidin-2-ylmethyl)-1H-indazole-6-carboxamide] reads 6.38. The result for `O=C(NC1CCS(=O)(=O)C1)c1ccc2c(-c3ccccc3Cl)nn(-c3ccc(F)cn3)c2c1` (single isomer, unassigned) [Example 176-A, 3-(2-chlorophenyl)-N-(1,1-dioxidotetrahydrothiophen-3-yl)-1-(5-fluoropyridin-2-yl)-1H-indazole-6-carboxamide] reads 6.60; that for `O=C(NC1CCNC1=O)c1ccc2c(-c3ccccc3Cl)nn(-c3ccc(F)cc3)c2c1` (racemic) [Example 52, 3-(2-chlorophenyl)-1-(4-fluorophenyl)-N-(2-oxopyrrolidin-3-yl)-1H-indazole-6-carboxamide], 6.38. On to `CCOC(=O)c1coc(-n2nc(-c3ccccc3Cl)c3ccc(C(=O)NC4(C)CCS(=O)(=O)C4)cc32)n1` (racemic) [Example 188, ethyl 2-{3-(2-chlorophenyl)-6-[(3-methyl-1,1-dioxidotetrahydrothiophen-3-yl)carbamoyl]-1H-indazol-1-yl}-1,3-oxazole-4-carboxylate], for which the pIC50 was 7.02. In turn, `CC(C)[C@@H](CO)NC(=O)c1ccc2c(-c3ccccc3Cl)nn(-c3ccc(F)cc3)c2c1` [Example 69, 3-(2-chlorophenyl)-1-(4-fluorophenyl)-N-[(1S)-1-(hydroxymethyl)-2-methylpropyl]-1H-indazole-6-carboxamide] showed a pIC50 of 8.10.

The compound `O=C(NC1CCS(=O)(=O)C1)c1ccc2c(-c3cccnc3)nn(-c3ccc(F)cc3)c2c1` (single isomer, unassigned) [Example 134-A, N-(1,1-dioxidotetrahydrothiophen-3-yl)-1-(4-fluorophenyl)-3-pyridin-3-yl-1H-indazole-6-carboxamide] gave a pIC50 of 6.67. In turn, `O=C(NCc1cccnc1)c1ccc2c(-c3ccccc3Cl)nn(-c3ccc(F)cc3)c2c1` [Example 31, 3-(2-chlorophenyl)-1-(4-fluorophenyl)-N-(pyridin-3-ylmethyl)-1H-indazole-6-carboxamide] had a negative-log IC50 (pIC50) of 6.49.

Compound `CC1(NC(=O)c2ccc3c(-c4ccnc(C(F)(F)F)c4)nn(-c4ccc(F)cc4)c3c2)CCS(=O)(=O)C1` (single isomer, unassigned) [Example 159-A, 1-(4-fluorophenyl)-N-(3-methyl-1,1-dioxidotetrahydrothiophen-3-yl)-3-[2-(trifluoromethyl)pyridin-4-yl]-1H-indazole-6-carboxamide] gave a negative logarithm of the IC50 (pIC50) of 6.33. Compound `CC1(NC(=O)c2ccc3c(-c4ccccc4Cl)nn(-c4ccc(F)cn4)c3c2)CCS(=O)(=O)C1` (single isomer, unassigned) [Example 172-A] gave a pIC50 of 7.41. As for `O=C(NCc1ccc(C(F)(F)F)nc1)c1ccc2c(-c3ccccc3Cl)nn(-c3ccc(F)cc3)c2c1` [Example 18, 3-(2-chlorophenyl)-1-(4-fluorophenyl)-N-{[6-(trifluoromethyl)pyridin-3-yl]methyl}-1H-indazole-6-carboxamide], the negative logarithm of the IC50 (pIC50) was 7.19.
